From ChEMBL document CHEMBL4507315 (2021)

How the values were obtained:
[1] = target: Tyrosine-protein kinase Lyn (Homo sapiens) (UniProt P07948); settings: Compound concentration 100.0 nM
[2] = target: 5-hydroxytryptamine receptor 6 (Homo sapiens) (UniProt P50406); settings: Compound concentration 10.0 uM
[3] = target: Delta-type opioid receptor (Homo sapiens) (UniProt P41143); settings: Compound concentration 10.0 uM
[4] = target: Receptor-interacting serine/threonine-protein kinase 2 (Homo sapiens) (UniProt O43353); settings: Compound concentration 100.0 nM
[5] = target: Mitogen-activated protein kinase kinase kinase kinase 2 (Homo sapiens) (UniProt Q12851); settings: Compound concentration 100.0 nM
[6] = target: Serine/threonine-protein kinase LATS1 (Homo sapiens) (UniProt O95835); settings: Compound concentration 100.0 nM
[7] = test system: Receptor-type tyrosine-protein kinase FLT3 (Homo sapiens), P36888 [R834Q]; settings: Compound concentration 100.0 nM
[8] = target: Ribosomal protein S6 kinase alpha-3 (Homo sapiens) (UniProt P51812); settings: Compound concentration 100.0 nM
[9] = target: Dual specificity tyrosine-phosphorylation-regulated kinase 2 (Homo sapiens) (UniProt Q92630); settings: Compound concentration 100.0 nM
[10] = target: Serine/threonine-protein kinase ULK3 (Homo sapiens) (UniProt Q6PHR2); settings: Compound concentration 100.0 nM
[11] = target: Serine/threonine-protein kinase pim-1 (Homo sapiens) (UniProt P11309); settings: Compound concentration 100.0 nM
[12] = test system: Tyrosine-protein kinase ABL1 (Homo sapiens), P00519 [F317I]; settings: Compound concentration 100.0 nM
[13] = target: Sigma intracellular receptor 2 (Homo sapiens, UniProt Q5BJF2); settings: Compound concentration 10.0 uM
[14] = test system: Tyrosine-protein kinase ABL1 (Homo sapiens), P00519 [Q252H]; settings: Compound concentration 100.0 nM
[15] = target: Serine/threonine-protein kinase 17B (Homo sapiens) (UniProt O94768); settings: Compound concentration 100.0 nM
[16] = target: Discoidin domain-containing receptor 2 (Homo sapiens) (UniProt Q16832); settings: Compound concentration 100.0 nM
[17] = target: Vascular endothelial growth factor receptor 2 (Homo sapiens) (UniProt P35968); settings: Compound concentration 100.0 nM
[18] = target: Serine/threonine-protein kinase TAO2 (Homo sapiens) (UniProt Q9UL54); settings: Compound concentration 100.0 nM
[19] = target: Testis-specific serine/threonine-protein kinase 1 (Homo sapiens) (UniProt Q9BXA7); settings: Compound concentration 100.0 nM
[20] = target: Transient receptor potential cation channel subfamily M member 6 (Homo sapiens) (UniProt Q9BX84); settings: Compound concentration 100.0 nM
[21] = target: Phosphatidylinositol 5-phosphate 4-kinase type-2 beta (Homo sapiens) (UniProt P78356); settings: Compound concentration 100.0 nM
[22] = target: Serine/threonine-protein kinase SIK3 (Homo sapiens) (UniProt Q9Y2K2); settings: Compound concentration 100.0 nM
[23] = target: Ephrin type-A receptor 8 (Homo sapiens) (UniProt P29322); settings: Compound concentration 100.0 nM
[24] = target: 5-hydroxytryptamine receptor 1B (Homo sapiens) (UniProt P28222); settings: Compound concentration 10.0 uM
[25] = target: Insulin-like growth factor 1 receptor (Homo sapiens) (UniProt P08069); settings: Compound concentration 100.0 nM
[26] = target: Serine/threonine-protein kinase 3 (Homo sapiens) (UniProt Q13188); settings: Compound concentration 100.0 nM
[27] = target: 5'-AMP-activated protein kinase catalytic subunit alpha-1 (Homo sapiens) (UniProt Q13131); settings: Compound concentration 100.0 nM
[28] = test system: Epidermal growth factor receptor (Homo sapiens), P00533 [L858R]; settings: Compound concentration 100.0 nM
[29] = target: 3-phosphoinositide-dependent protein kinase 1 (Homo sapiens) (UniProt O15530); settings: Compound concentration 100.0 nM
[30] = test system: Tyrosine-protein kinase ABL1 (Homo sapiens), P00519 [H396P]; settings: Compound concentration 100.0 nM
[31] = target: Cyclin-dependent kinase 14 (Homo sapiens) (UniProt O94921); settings: Compound concentration 100.0 nM
[32] = target: Serine/threonine-protein kinase 33 (Homo sapiens) (UniProt Q9BYT3); settings: Compound concentration 100.0 nM
[33] = target: Hormonally up-regulated neu tumor-associated kinase (Homo sapiens) (UniProt P57058); settings: Compound concentration 100.0 nM
[34] = target: Serine/threonine-protein kinase/endoribonuclease IRE1 (Homo sapiens) (UniProt O75460); settings: Compound concentration 100.0 nM
[35] = target: STE20-like serine/threonine-protein kinase (Homo sapiens) (UniProt Q9H2G2); settings: Compound concentration 100.0 nM
[36] = target: Cyclin-dependent kinase 4 (Homo sapiens) (UniProt P11802); settings: Compound concentration 100.0 nM
[37] = target: Insulin receptor-related protein (Homo sapiens) (UniProt P14616); settings: Compound concentration 100.0 nM
[38] = target: Casein kinase I isoform gamma-2 (Homo sapiens) (UniProt P78368); settings: Compound concentration 100.0 nM
[39] = target: Ribosomal protein S6 kinase alpha-4 (Homo sapiens) (UniProt O75676); settings: Compound concentration 100.0 nM
[40] = target: 5-hydroxytryptamine receptor 1D (Homo sapiens) (UniProt P28221); settings: Compound concentration 10.0 uM
[41] = target: Ribosomal protein S6 kinase alpha-3 (Homo sapiens) (UniProt P51812); settings: Compound concentration 100.0 nM; remark: listed apart in the source
[42] = target: ALK tyrosine kinase receptor (Homo sapiens) (UniProt Q9UM73); settings: Compound concentration 100.0 nM
[43] = target: 5-hydroxytryptamine receptor 5A (Homo sapiens) (UniProt P47898); settings: Compound concentration 10.0 uM
[44] = target: Membrane-associated tyrosine- and threonine-specific cdc2-inhibitory kinase (Homo sapiens) (UniProt Q99640); settings: Compound concentration 100.0 nM
[45] = target: Ephrin type-A receptor 4 (Homo sapiens) (UniProt P54764); settings: Compound concentration 100.0 nM

Ribosomal protein S6 kinase alpha-3 (Homo sapiens), sequence (P51812 whole entry): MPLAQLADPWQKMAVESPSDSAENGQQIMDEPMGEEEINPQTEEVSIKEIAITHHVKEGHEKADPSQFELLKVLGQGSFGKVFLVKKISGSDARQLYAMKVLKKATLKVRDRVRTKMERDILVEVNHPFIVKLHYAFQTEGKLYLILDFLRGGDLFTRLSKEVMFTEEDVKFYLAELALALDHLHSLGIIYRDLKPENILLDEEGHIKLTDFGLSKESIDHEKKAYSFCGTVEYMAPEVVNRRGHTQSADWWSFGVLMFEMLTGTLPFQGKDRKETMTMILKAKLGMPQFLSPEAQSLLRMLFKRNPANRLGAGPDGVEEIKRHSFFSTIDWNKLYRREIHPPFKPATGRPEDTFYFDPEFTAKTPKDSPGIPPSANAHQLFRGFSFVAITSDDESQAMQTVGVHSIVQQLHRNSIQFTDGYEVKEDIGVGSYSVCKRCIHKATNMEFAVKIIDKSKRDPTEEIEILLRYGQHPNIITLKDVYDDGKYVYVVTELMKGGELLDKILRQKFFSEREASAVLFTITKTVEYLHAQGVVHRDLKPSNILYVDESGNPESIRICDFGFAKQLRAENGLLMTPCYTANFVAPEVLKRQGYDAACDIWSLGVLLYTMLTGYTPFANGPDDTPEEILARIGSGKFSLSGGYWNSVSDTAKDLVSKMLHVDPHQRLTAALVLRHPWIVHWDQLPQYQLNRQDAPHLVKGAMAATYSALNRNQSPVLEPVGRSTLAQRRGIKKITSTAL
Vascular endothelial growth factor receptor 2 (Homo sapiens), sequence (P35968 whole entry): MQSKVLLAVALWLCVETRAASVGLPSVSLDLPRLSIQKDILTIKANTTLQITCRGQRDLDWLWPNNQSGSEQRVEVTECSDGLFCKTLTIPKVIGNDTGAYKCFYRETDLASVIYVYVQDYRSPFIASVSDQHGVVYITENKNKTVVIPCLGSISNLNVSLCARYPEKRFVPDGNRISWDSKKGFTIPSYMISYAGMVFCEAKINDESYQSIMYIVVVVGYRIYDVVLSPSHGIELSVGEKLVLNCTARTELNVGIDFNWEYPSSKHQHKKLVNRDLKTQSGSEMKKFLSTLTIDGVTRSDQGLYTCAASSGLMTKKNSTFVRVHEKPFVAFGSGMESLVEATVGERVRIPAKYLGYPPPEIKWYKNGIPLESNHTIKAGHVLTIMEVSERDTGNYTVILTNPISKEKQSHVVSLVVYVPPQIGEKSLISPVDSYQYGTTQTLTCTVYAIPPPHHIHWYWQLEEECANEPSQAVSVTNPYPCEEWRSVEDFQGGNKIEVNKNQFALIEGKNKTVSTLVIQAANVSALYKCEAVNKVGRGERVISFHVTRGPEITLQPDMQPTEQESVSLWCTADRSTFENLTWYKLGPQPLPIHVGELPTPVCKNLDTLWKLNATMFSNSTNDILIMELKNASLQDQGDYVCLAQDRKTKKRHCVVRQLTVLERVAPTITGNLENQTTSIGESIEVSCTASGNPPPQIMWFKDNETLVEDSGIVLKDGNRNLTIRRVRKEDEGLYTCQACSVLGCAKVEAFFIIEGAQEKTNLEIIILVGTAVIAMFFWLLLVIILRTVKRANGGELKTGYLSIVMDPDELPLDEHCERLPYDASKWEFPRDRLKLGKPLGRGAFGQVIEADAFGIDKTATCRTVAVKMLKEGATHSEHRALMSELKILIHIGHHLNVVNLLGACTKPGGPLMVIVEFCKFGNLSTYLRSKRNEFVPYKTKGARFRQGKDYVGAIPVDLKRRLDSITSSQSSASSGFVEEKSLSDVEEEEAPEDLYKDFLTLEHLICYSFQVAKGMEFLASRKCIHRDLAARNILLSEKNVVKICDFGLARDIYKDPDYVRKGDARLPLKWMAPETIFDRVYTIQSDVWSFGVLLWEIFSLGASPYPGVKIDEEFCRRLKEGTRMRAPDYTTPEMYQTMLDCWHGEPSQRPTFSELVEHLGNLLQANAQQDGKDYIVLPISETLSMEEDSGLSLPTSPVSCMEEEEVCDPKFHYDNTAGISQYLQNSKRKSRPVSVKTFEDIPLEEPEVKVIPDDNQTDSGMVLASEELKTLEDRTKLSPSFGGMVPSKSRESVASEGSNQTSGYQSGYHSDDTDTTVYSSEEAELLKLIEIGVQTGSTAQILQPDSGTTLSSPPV
Hormonally up-regulated neu tumor-associated kinase (Homo sapiens), sequence (P57058 whole entry): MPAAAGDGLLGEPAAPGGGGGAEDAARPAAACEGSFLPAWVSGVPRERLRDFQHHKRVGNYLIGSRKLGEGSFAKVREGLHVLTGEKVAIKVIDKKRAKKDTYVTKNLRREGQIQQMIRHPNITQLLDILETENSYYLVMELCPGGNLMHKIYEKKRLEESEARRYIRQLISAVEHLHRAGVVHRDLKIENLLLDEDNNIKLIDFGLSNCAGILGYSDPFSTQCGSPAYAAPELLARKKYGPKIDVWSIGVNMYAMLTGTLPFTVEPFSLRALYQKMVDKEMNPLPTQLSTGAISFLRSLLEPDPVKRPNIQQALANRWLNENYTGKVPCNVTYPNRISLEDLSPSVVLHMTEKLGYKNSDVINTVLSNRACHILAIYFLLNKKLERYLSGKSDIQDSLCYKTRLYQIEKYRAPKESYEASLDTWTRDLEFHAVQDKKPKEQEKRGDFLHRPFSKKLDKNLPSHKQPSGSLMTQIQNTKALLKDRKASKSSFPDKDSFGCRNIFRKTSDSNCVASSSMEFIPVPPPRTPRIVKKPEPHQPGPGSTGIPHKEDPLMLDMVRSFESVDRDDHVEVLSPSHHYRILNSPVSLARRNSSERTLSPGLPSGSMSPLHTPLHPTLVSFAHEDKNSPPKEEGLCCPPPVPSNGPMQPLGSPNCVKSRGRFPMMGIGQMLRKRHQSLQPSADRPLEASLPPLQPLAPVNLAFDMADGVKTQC
Ephrin type-A receptor 8 (Homo sapiens), sequence (P29322 whole entry): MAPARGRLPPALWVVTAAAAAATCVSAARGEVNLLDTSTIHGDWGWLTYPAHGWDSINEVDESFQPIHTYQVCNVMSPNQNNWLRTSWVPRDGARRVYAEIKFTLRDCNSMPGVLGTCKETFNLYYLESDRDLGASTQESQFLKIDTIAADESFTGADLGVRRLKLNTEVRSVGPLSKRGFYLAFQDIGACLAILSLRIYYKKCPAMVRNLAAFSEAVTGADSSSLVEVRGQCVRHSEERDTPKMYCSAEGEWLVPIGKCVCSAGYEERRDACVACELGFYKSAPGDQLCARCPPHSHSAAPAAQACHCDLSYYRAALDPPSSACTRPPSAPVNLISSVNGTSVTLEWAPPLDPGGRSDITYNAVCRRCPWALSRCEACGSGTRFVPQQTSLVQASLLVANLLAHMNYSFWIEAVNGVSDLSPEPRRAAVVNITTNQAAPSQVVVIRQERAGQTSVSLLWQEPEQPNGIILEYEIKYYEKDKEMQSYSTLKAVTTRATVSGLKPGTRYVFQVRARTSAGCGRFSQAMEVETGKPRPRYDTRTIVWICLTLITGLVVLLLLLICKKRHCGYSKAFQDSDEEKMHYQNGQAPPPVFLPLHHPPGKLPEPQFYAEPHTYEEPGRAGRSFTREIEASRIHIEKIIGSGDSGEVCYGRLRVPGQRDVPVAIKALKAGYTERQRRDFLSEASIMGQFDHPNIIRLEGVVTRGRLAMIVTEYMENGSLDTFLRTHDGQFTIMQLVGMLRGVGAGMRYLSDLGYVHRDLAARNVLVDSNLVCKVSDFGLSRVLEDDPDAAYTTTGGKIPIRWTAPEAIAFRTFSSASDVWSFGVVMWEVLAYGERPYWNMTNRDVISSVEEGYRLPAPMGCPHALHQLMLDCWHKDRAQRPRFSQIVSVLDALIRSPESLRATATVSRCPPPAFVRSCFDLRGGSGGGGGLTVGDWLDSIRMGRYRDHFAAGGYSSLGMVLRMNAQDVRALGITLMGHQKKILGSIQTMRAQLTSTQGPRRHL
Phosphatidylinositol 5-phosphate 4-kinase type-2 beta (Homo sapiens), sequence (P78356 whole entry): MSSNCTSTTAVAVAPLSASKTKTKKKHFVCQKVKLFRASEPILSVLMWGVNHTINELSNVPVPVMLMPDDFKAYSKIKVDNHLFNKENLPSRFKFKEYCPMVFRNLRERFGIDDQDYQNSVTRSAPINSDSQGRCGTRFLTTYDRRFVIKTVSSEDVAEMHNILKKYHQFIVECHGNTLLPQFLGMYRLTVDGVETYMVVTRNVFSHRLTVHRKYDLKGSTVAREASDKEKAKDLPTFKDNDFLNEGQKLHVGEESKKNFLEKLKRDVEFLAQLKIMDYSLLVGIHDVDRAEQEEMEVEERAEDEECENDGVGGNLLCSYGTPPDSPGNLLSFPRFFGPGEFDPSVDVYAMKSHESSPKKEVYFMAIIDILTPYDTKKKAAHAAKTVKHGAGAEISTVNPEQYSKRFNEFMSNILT
Ribosomal protein S6 kinase alpha-4 (Homo sapiens), sequence (O75676 whole entry, looked up): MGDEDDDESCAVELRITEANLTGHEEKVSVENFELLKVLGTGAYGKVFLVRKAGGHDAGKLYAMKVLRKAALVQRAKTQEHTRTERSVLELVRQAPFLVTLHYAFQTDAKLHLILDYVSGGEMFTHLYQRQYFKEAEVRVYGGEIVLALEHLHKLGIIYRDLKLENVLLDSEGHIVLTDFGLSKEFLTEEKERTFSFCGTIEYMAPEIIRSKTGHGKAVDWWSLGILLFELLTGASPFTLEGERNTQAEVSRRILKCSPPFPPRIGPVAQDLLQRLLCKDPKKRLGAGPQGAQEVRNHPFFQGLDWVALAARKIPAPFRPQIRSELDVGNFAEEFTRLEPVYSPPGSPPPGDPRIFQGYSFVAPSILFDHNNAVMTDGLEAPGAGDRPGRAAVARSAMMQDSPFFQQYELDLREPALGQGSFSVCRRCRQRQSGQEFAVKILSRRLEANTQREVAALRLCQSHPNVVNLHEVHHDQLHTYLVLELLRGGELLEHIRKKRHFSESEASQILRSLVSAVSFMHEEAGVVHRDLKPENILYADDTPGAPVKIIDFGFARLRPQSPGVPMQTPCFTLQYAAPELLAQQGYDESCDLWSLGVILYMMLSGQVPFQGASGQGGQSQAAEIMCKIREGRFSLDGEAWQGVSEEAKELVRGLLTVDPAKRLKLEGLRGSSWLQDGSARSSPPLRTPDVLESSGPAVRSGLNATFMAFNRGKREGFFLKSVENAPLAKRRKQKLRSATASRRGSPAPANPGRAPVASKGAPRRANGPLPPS

## Nc1c(C(=O)NCc2ccc(C(=O)NCCCC3CCCCC3)cc2)cnn1-c1ccccc1 [SR-318]
[1]
  residual activity: 100%
[2]
  inhibition: 26.8%
[3]
  inhibition: 24.1%
[4]
  residual activity: 96%
[5]
  residual activity: 94%
[6]
  residual activity: 100%
[7]
  residual activity: 100%
[8]
  residual activity: 100%
[9]
  residual activity: 97%
[10]
  residual activity: 100%
[11]
  residual activity: 93%
[12]
  residual activity: 92%
[13]
  inhibition: 45.3%
[14]
  residual activity: 98%
[15]
  residual activity: 94%
[16]
  residual activity: 56%
[17]
  residual activity: 100%
[18]
  residual activity: 100%
[19]
  residual activity: 81%
[20]
  residual activity: 100%
[21]
  residual activity: 100%
[22]
  residual activity: 94%
[23]
  residual activity: 100%
[24]
  inhibition: 10.4%
[25]
  residual activity: 98%
[26]
  residual activity: 100%
[27]
  residual activity: 100%
[28]
  residual activity: 100%
[29]
  residual activity: 100%
[30]
  residual activity: 100%
[31]
  residual activity: 100%
[32]
  residual activity: 96%
[33]
  residual activity: 100%
[34]
  residual activity: 100%
[35]
  residual activity: 80%
[36]
  residual activity: 100%
[37]
  residual activity: 100%
[38]
  residual activity: 94%
[39]
  residual activity: 85%
[40]
  inhibition: 27.6%
[41]
  residual activity: 92%
[42]
  residual activity: 100%
[43]
  inhibition: 9.6%
[44]
  residual activity: 100%
[45]
  residual activity: 100%

## O=C(NCCCC1CCCCC1)c1ccc(CNC(=O)c2cnn(-c3ccccc3)c2C(F)(F)F)cc1 [SR-321]
[1]
  residual activity: 100%
[2]
  inhibition: -0.05%
[3]
  inhibition: 12.9%
[4]
  residual activity: 97%
[5]
  residual activity: 100%
[6]
  residual activity: 100%
[7]
  residual activity: 100%
[8]
  residual activity: 100%
[9]
  residual activity: 100%
[10]
  residual activity: 100%
[11]
  residual activity: 100%
[12]
  residual activity: 100%
[13]
  inhibition: 54.8%
[14]
  residual activity: 98%
[15]
  residual activity: 100%
[16]
  residual activity: 100%
[17]
  residual activity: 97%
[18]
  residual activity: 89%
[19]
  residual activity: 94%
[20]
  residual activity: 94%
[21]
  residual activity: 96%
[22]
  residual activity: 76%
[23]
  residual activity: 95%
[24]
  inhibition: 9.89%
[25]
  residual activity: 100%
[26]
  residual activity: 100%
[27]
  residual activity: 100%
[28]
  residual activity: 100%
[29]
  residual activity: 100%
[30]
  residual activity: 99%
[31]
  residual activity: 100%
[32]
  residual activity: 87%
[33]
  residual activity: 100%
[34]
  residual activity: 94%
[35]
  residual activity: 100%
[36]
  residual activity: 100%
[37]
  residual activity: 100%
[38]
  residual activity: 96%
[39]
  residual activity: 83%
[40]
  inhibition: -8.35%
[41]
  residual activity: 100%
[42]
  residual activity: 100%
[43]
  inhibition: 17%
[44]
  residual activity: 77%
[45]
  residual activity: 70%
